ChEMBL document CHEMBL1158662, “Cochinolide, a new gamma-alkylidene bicyclic butenolide with antiviral activity, and its beta-glucopyranoside from Homalium cochinchinensis” (J Nat Prod, 1998)
Converted amounts (≈) assume the structure as drawn. The source made the active and inactive calls. No cut-off for these calls is given here.

Experiments:
Human alphaherpesvirus 1 = assay: Antiviral activity against HSV1; assay type: functional, organism-based
Human alphaherpesvirus 2 = assay: Antiviral activity against HSV2; assay type: functional, organism-based

Structure (SMILES)	Activity (Human alphaherpesvirus 1)	Activity (Human alphaherpesvirus 2)	EC50 (Human alphaherpesvirus 1)	EC50 (Human alphaherpesvirus 2)
O=C1OC2=C[C@@H](O[C@@H]3O[C@H](CO)[C@@H](O)[C@H](O)[C@H]3O)CCC2=C1C(O)c1ccccc1 (some centres undefined)	inactive	inactive	–	–
Nc1nc2c(ncn2COCCO)c(=O)[nH]1 [ACYCLOVIR]	–	–	0.24 µg/mL (≈ 1.07 µM)	0.22 µg/mL (≈ 0.977 µM)
